# Measurements taken from patent US8551999B2, “Heterocyclic compound and pharmaceutical composition thereof” (Otsuka Pharmaceutical Co., Ltd., priority 2007, dated 2013).
row,Compound,melting point
1,"Br.CC(C)Oc1ccc(CN2CCN(C(=O)c3cc4ccc(Oc5ccc(NC(=O)c6ccc(Cl)c(Cl)c6)cn5)cc4n3C)CC2)cn1 [Example 466, 3,4-Dichloro-N-(6-{2-[4-(6-isopropoxypyridin-3-ylmethyl)-piperazine-1-carbonyl]-1-methyl-1H-indol-6-yloxy}pyridin-3-yl)-benzamide hydrobromide]",236.9 to 240.4 °C
2,Cc1ccc(C(=O)N(C)c2ccc(Oc3ccc4cc(C(=O)N5CCN(Cc6ccc(OCC(F)F)cc6)CC5)n(C)c4c3)nc2)cc1.Cl,207.8 to 209.3 °C
3,"Br.Br.Cn1c(C(=O)N2CCN(Cc3ccncc3)CC2)cc2cc(Oc3ccc(NC(=O)c4ccc(Cl)c(Cl)c4)cn3)ccc21 [Example 555, 3,4-Dichloro-N-{6-[1-methyl-2-(4-pyridin-4-ylmethylpiperazine-1-carbonyl)-1H-indol-5-yloxy]pyridin-3-yl}benzamide dihydrobromide]",214 to 219 °C (dec.)
4,"Br.Cc1c(Oc2ccc(N(C)C(=O)c3ccc(C(F)(F)F)cc3)cn2)ccc2c1cc(C(=O)N1CCN(Cc3ccc(C#N)cc3)CC1)n2C [Example 425, N-(6-{2-[4-(4-Cyanobenzyl)piperazine-1-carbonyl]-1,4-dimethyl-1H-indol-5-yloxy}pyridin-3-yl)-N-methyl-4-trifluoromethylbenzamide hydrobromide]",249 to 252 °C
5,"Br.CN(C(=O)c1ccc(C(F)(F)F)cc1)c1ccc(Oc2cccc3cc(C(=O)N4CCN(Cc5ccc(C#N)cc5)CC4)n(C)c23)nc1 [Example 324, N-(6-{2-[4-(4-Cyanobenzyl)piperazine-1-carbonyl]-1-methyl-1H-indol-7-yloxy}pyridin-3-yl)-N-methyl-4-trifluoromethylbenzamide hydrobromide]",200 to 201 °C
6,"Br.COc1cccc(CN2CCN(C(=O)c3cc4cc(Oc5ccc(N(C)C(=O)c6ccc(C(F)(F)F)cc6)cn5)ccc4n3C)CC2)c1 [Example 351, N-(6-{2-[4-(3-Methoxybenzyl)piperazine-1-carbonyl]-1-methyl-1H-indol-5-yloxy}pyridin-3-yl)-N-methyl-4-trifluoromethylbenzamide hydrobromide]",217 to 219 °C
7,"Br.COc1ccc(CN2CCN(C(=O)c3cc4cc(Oc5ccc(NC(=O)c6cc7cc(Br)ccc7[nH]6)cn5)ccc4n3C)CC2)cc1 [Example 228, 5-Bromo-1H-indole-2-carboxylic acid (6-{2-[4-(4-methoxybenzyl)-piperazine-1-carbonyl]-1-methyl-1H-indol-5-yloxy}pyridin-3-yl)-amide hydrobromide]",263 to 265 °C
8,"Br.Cn1c(C(=O)N2CCN(Cc3ccc4c(c3)OCO4)CC2)cc2cc(Oc3ccc(NC(=O)c4ccc(C(F)(F)F)cc4F)cn3)ccc21 [Example 316, N-{6-[2-(4-Benzo[1,3]dioxol-5-ylmethylpiperazine-1-carbonyl)-1-methyl-1H-indol-5-yloxy]pyridin-3-yl}-2-fluoro-4-trifluoromethyl-benzamide hydrobromide]",254 to 257 °C (dec.)
9,CC(C)S(=O)(=O)N(C)c1ccc(Oc2ccc3cc(C(=O)N4CCN(Cc5ccc(OCC(F)(F)F)cc5)CC4)n(C)c3c2)nc1.Cl,256.5 to 259.8 °C
10,CCCOc1ccc(CN2CCN(C(=O)c3cc4ccc(Oc5ccc(N(C)C(=O)c6ccc(C(F)(F)F)cc6F)cn5)cc4n3C)CC2)cc1.Cl,247.1 to 249.2 °C
11,"Br.CCOc1ccc(CN2CCN(C(=O)c3cc4ccc(Oc5ccc(N(C)C(=O)c6ccc(C(F)(F)F)cc6)cn5)cc4n3C)CC2)cc1 [Example 419, N-(6-{2-[4-(4-Ethoxybenzyl)piperazine-1-carbonyl]-1-methyl-1H-indol-6-yloxy}pyridin-3-yl)-N-methyl-4-trifluoromethylbenzamide hydrobromide]",241 to 243 °C
12,"Br.CCCc1ccc(CN2CCN(C(=O)c3cc4ccc(Oc5ccc(N(C)C(=O)c6ccc(C(F)(F)F)cc6)cn5)cc4n3C)CC2)cc1 [Example 431, N-Methyl-N-(6-{1-methyl-2-[4-(4-propylbenzyl)piperazine-1-carbonyl]-1H-indol-6-yloxy}pyridin-3-yl)-4-trifluoromethyl-benzamide hydrobromide]",255 to 257 °C
13,"Br.CC(C)Oc1ccc(CN2CCN(C(=O)c3cc4ccc(Oc5ccc(N(C)C(=O)c6ccc(OC(F)(F)F)cc6)cn5)cc4n3C)CC2)cc1 [Example 472, N-(6-{2-[4-(4-Isopropoxybenzyl)piperazine-1-carbonyl]-1-methyl-1H-indol-6-yloxy}pyridin-3-yl)-N-methyl-4-trifluoromethoxy-benzamide hydrobromide]",237.2 to 238.5 °C
14,"Br.CN(C(=O)c1ccc(Cl)c(Cl)c1)c1ccc(Oc2ccc3c(c2)cc(C(=O)N2CCN(Cc4ccccc4)CC2)n3C)nc1 [Example 330, N-{6-[2-(4-Benzylpiperazine-1-carbonyl)-1-methyl-1H-indol-5-yl-oxy]pyridin-3-yl}-3,4-dichloro-N-methylbenzamide hydrobromide]",210 to 213 °C
15,"Cc1ccc(S(=O)(=O)N(C)c2ccc(Oc3ccc4cc(C(=O)N5CCN(Cc6ccc(OC(C)C)nc6)CC5)n(C)c4c3)nc2)cc1 [Example 534, N-(6-{2-[4-(6-Isopropoxypyridin-3-ylmethyl)piperazine-1-carbonyl]-1-methyl-1H-indol-6-yloxy}pyridin-3-yl)-4,N-dimethyl-benzenesulfonamide]",131.1 to 132.8 °C
16,"Br.COc1cccc(CN2CCN(C(=O)c3cc4cc(Oc5ccc(NC(=O)c6ccc(C(F)(F)F)cc6)cn5)ccc4n3C)CC2)c1 [Example 353, N-(6-{2-[4-(3-Methoxybenzyl)piperazine-1-carbonyl]-1-methyl-1H-indol-5-yloxy}pyridin-3-yl)-4-trifluoromethylbenzamide hydrobromide]",231 to 233 °C
17,"Br.CN(C(=O)c1ccc(C(F)(F)F)cc1Cl)c1ccc(Oc2ccc3cc(C(=O)N4CCN(Cc5ccc(OCC(F)(F)F)cc5)CC4)n(C)c3c2)nc1 [Example 449, 2-Chloro-N-methyl-N-[6-(1-methyl-2-{4-[4-(2,2,2-trifluoroethoxy)-benzyl]piperazine-1-carbonyl}-1H-indol-6-yloxy)pyridin-3-yl]-4-trifluoromethylbenzamide hydrobromide]",239.5 to 240.6 °C
18,"CS(=O)(=O)O.CS(=O)(=O)O.Cn1c(C(=O)N2CCN(Cc3ccccn3)CC2)cc2cc(Oc3ccc(NC(=O)c4ccc(C(F)(F)F)cc4)cn3)ccc21 [Example 560, N-{6-[1-Methyl-2-(4-pyridin-2-ylmethylpiperazine-1-carbonyl)-1H-indol-5-yloxy]pyridin-3-yl}-4-trifluoromethylbenzamide bismethanesulfonate]",137 to 139 °C
19,"CCCc1ccc(CN2CCN(C(=O)c3cc4cc(Oc5ccc(N(C)C(=O)c6ccc(C(F)(F)F)cc6)cn5)ccc4n3C)CC2)cc1.O=C(O)/C=C\C(=O)O [Example 411, N-Methyl-N-(6-{1-methyl-2-[4-(4-propylbenzyl)piperazine-1-carbonyl]-1H-indol-5-yloxy}pyridin-3-yl)-4-trifluoromethyl-benzamide maleate]",132 to 134 °C
20,Cc1cc(C(F)(F)F)ccc1C(=O)Nc1ccc(Oc2ccc3cc(C(=O)N4CCN(Cc5ccc(OC(F)F)cc5)CC4)n(C)c3c2)nc1.Cl,204.9 to 205.7 °C
21,"Br.CC(C)Oc1ccc(CN2CCN(C(=O)c3cc4ccc(Oc5ccc(N(C)C(=O)c6ccc(C(F)(F)F)cc6Cl)cn5)cc4n3C)CC2)cc1 [Example 451, 2-Chloro-N-(6-{2-[4-(4-isopropoxybenzyl)piperazine-1-carbonyl]-1-methyl-1H-indol-6-yloxy}pyridin-3-yl)-N-methyl-4-trifluoromethyl-benzamide hydrobromide]",248.3 to 252.3 °C
22,"Br.CC(C)CN1CCN(C(=O)c2cc3cc(Oc4ccc(NC(=O)c5ccc(Cl)c(Cl)c5)cn4)ccc3n2C)CC1 [Example 567, 3,4-Dichloro-N-{6-[2-(4-isobutylpiperazine-1-carbonyl)-1-methyl-1H-indol-5-yloxy]pyridin-3-yl}benzamide hydrobromide]",251 to 254 °C
23,"CN(c1ccc(Oc2ccc3c(c2)cc(C(=O)N2CCN(Cc4ccc(OCC(F)(F)F)cc4)CC2)n3C)nc1)S(=O)(=O)c1ccc(Cl)c(Cl)c1 [Example 528, 3,4-Dichloro-N-methyl-N-[6-(1-methyl-2-{4-[4-(2,2,2-trifluoro-ethoxy)benzyl]piperazine-1-carbonyl}-1H-indol-5-yloxy)pyridin-3-yl]benzenesulfonamide]",174.8 to 175.8 °C
24,"COc1ccc(CN2CCN(C(=O)c3cc4cccc(Oc5ccc(N(C)C(=O)c6ccc(C(F)(F)F)cc6)cn5)c4n3C)CC2)cc1.O=C(O)C(=O)O [Example 323, N-(6-{2-[4-(4-Methoxybenzyl)piperazine-1-carbonyl]-1-methyl-1H-indol-7-yloxy}pyridin-3-yl)-N-methyl-4-trifluoromethylbenzamide oxalate]",134 to 135 °C
25,CN(c1ccc(Oc2ccc3cc(C(=O)N4CCN(Cc5ccc(OCC(F)(F)F)cc5)CC4)n(C)c3c2)nc1)S(=O)(=O)CC(F)(F)F.Cl,243.4 to 244.4 °C
26,"Br.Cn1c(C(=O)N2CCN(Cc3ccc(OC(F)F)cc3)CC2)cc2ccc(Oc3ccc(NC(=O)c4ccc(C(F)(F)F)cc4)cn3)cc21 [Example 477, N-(6-{2-[4-(4-Difluoromethoxybenzyl)piperazine-1-carbonyl]-1-methyl-1H-indol-6-yloxy}pyridin-3-yl)-4-trifluoromethylbenzamide hydrobromide]",265.6 to 268.3 °C
27,"CC(C)Cc1ccc(CN2CCN(C(=O)c3cc4cc(Oc5ccc(N(C)C(=O)c6ccc(C(F)(F)F)cc6)cn5)ccc4n3C)CC2)cc1.O=C(O)/C=C\C(=O)O [Example 416, N-(6-{2-[4-(4-Isobutylbenzyl)piperazine-1-carbonyl]-1-methyl-1H-indol-5-yloxy}pyridin-3-yl)-N-methyl-4-trifluoromethylbenzamide maleate]",147 to 149 °C
28,"Br.COc1ccc(CN2CCN(C(=O)c3cc4ccc(Oc5ccc(NC(=O)c6ccc(Cl)c(Cl)c6)cn5)cc4n3C)CC2)cc1 [Example 258, 3,4-Dichloro-N-(6-{2-[4-(4-methoxybenzyl)piperazine-1-carbonyl]-1-methyl-1H-indol-6-yloxy}pyridin-3-yl)benzamide hydrobromide]",234.6 to 237.2 °C
